Experimental data published in patent US20140051679A1, “KINASE INHIBITORS AND METHOD OF TREATING CANCER WITH SAME” (UNIVERISTY HEALTH NETWORKS, priority 2011, published 2014).

Legend:
human TTK = biological target: T1, human TTK (Homo sapiens, UniProt P33981); assay: TTK inhibition assay (indirect ELISA); type: biochemical; details: GST-TTK 0.68 nM, 16 μM ATP; read-out: IC50 Ranges TTK
T1 construct: amino terminal GST fusion of full length human TTK; purchased Invitrogen
T1 sequence (P33981 1-857): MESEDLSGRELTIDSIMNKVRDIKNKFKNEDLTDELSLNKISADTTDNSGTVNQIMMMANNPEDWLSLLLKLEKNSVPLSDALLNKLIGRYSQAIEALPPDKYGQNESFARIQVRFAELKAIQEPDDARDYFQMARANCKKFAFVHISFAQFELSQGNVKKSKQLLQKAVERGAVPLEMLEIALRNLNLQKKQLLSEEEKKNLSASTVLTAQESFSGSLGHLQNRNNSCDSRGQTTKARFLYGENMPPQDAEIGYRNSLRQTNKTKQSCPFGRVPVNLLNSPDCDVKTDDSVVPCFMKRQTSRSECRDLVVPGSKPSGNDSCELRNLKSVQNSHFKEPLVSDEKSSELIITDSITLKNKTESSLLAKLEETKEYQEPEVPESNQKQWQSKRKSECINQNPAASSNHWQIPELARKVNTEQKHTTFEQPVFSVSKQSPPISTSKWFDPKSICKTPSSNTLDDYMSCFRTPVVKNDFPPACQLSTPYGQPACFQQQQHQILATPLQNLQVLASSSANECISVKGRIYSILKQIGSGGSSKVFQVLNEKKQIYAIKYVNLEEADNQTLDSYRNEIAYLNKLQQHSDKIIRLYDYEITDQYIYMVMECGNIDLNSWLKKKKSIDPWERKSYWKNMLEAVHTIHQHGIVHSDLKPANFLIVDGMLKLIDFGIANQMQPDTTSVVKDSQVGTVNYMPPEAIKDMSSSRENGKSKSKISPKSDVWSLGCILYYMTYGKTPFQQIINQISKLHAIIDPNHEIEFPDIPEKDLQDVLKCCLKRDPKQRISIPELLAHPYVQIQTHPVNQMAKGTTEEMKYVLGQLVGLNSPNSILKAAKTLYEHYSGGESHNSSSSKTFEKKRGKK

human PLK4 = biological target: T2, human PLK4 (Homo sapiens, UniProt O00444); assay: PLK4 inhibition assay (indirect ELISA); type: biochemical; details: GST-PLK4 4 nM, 15 μM ATP; read-out: IC50 Ranges PLK4
T2 construct: amino terminal GST fusion of residues 1-391 of human PLK4; made in house; host or cells: E. coli
T2 sequence (O00444 1-391): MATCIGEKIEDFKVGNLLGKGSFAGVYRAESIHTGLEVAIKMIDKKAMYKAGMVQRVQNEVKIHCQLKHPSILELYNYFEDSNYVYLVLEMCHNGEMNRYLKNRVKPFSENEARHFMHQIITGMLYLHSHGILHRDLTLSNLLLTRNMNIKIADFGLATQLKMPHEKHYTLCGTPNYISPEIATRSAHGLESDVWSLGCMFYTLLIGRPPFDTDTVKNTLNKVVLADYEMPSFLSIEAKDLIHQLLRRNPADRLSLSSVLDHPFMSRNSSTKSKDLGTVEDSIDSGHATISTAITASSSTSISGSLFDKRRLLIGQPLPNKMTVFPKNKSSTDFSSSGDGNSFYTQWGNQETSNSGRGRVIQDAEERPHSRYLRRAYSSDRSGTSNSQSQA
In short: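 Dephosphorylated GST-tagged human PLK4 (residues 1-391, E. coli), 4 nM, preincubated 15 min with compound, then reacted 30 min with 15 μM ATP on MBP-coated plates (50 mM HEPES pH 7.5, 10 mM MgCl2, 0.01% Brij 35). Phospho-MBP detected by antibody ELISA at 450 nm. Tested at 10 μM or 10-point titrations; IC50 from 4-parameter logistic fit.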

[1] = tested on: MDA-MB-231 breast cancer cells; assay: Cell growth inhibition, Sulforhodamine B assay, MDA-MB-231; type: cell-based; details: Homo sapiens, 120 h, 5 days culture, SRB assay, read-out: Cell Line GI50 Range MDA-MB-231
[2] = tested on: MDA-MB-468 breast cancer cells; assay: Cell growth inhibition, Sulforhodamine B assay, MDA-MB-468; type: cell-based; details: Homo sapiens, 120 h, 5 days culture, SRB assay, read-out: Cell Line GI50 Range MDA-MB-468
[3] = tested on: HCT116 colon cancer cells; assay: Cell growth inhibition, Sulforhodamine B assay, HCT116; type: cell-based; details: Homo sapiens, HCT-116, 120 h, 5 days culture, SRB assay, read-out: Cell Line GI50 Range HCT116
HT29 colon cancer cells = assay: Cell growth inhibition, Sulforhodamine B assay, HT29; type: cell-based; details: Homo sapiens, HT-29, 120 h, 5 days culture, SRB assay, read-out: Cell Line GI50 Range HT29
[4] = tested on: PA-1 ovarian cancer cells; assay: Cell growth inhibition, Sulforhodamine B assay, PA-1; type: cell-based; details: 120 h, 5 days culture, SRB assay, read-out: Cell Line GI50 Range PA-1
[5] = tested on: OVCAR-3 ovarian cancer cells; assay: Cell growth inhibition, Sulforhodamine B assay, OVCAR-3; type: cell-based; details: Homo sapiens, 120 h, 5 days culture, SRB assay, read-out: Cell Line GI50 Range OVCAR-3
Aurora B = biological target: T3, Aurora B (Homo sapiens, UniProt Q96GD4); assay: Aurora B inhibition assay (Z-Lyte); type: biochemical; details: 28 nM Aurora B, 128 μM ATP; read-out: IC50 Ranges Aurora B
T3 construct: purchased Invitrogen PV3970
Procedure: Aurora B inhibition was determined using the Z-Lyte assay kit from Invitrogen. The assay was performed using the recommended manufacturer's instructions with 128 μM ATP and 28 nM Aurora B (Invitrogen cat #PV3970). The % inhibition values were determined according to the manufacturer's directions and IC50 values were obtained using a non-linear 4 point logistic curve fit (XLfit4, IDBS)

T3 sequence (Q96GD4 whole entry): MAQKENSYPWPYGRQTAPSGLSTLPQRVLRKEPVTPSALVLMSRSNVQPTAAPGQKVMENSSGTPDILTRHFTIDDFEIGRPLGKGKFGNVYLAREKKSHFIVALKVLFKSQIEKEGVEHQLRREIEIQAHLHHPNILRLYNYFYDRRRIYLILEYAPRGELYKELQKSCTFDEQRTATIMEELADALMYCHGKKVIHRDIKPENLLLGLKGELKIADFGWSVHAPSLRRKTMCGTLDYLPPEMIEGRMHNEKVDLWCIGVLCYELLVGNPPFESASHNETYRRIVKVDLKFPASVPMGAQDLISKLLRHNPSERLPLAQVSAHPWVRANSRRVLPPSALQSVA

IC50 (human TTK) [µM]	IC50 (human PLK4) [µM]	GI50 [1] [µM]	GI50 [2] [µM]	GI50 [3] [µM]	GI50 (HT29 colon cancer cells) [µM]	GI50 [4] [µM]	GI50 [5] [µM]	IC50 (Aurora B) [µM]	SMILES
≤ 5	≤ 5	≤ 5	≤ 5	≤ 5	≤ 5	≤ 5	≤ 5	–	COCCN1CCC(Oc2ccc(-c3n[nH]c4ccc(C(=O)N[C@H](COC)c5ccccc5)cc34)cc2)CC1 [Example A164, (S)—N-(2-methoxy-1-phenylethyl)-3-(4-((1-(2-methoxyethyl)piperidin-4-yl)oxy)phenyl)-1H-indazole-5-carboxamide]
≤ 5	≤ 5	≤ 5	≤ 5	≤ 5	≤ 5	≤ 5	5 to 20	–	CCc1cccc(CC)c1NC(=O)Nc1ccc2[nH]nc(-c3ccc4c(c3)CN(C)CCO4)c2c1 [Example A114, 1-(2,6-diethylphenyl)-3-(3-(4-methyl-2,3,4,5-tetrahydrobenzo[f][1,4]oxazepin-7-yl)-1H-indazol-5-yl)urea]
≤ 5	≤ 5	≤ 5	≤ 5	≤ 5	≤ 5	≤ 5	≤ 5	–	CO[C@@H](C(=O)Nc1ccc2[nH]nc(-c3ccc(OCC4CCN(C)CC4)cc3)c2c1)c1ccccc1 [Example A145, (R)-2-methoxy-N-(3-(4-((1-methylpiperidin-4-yl)methoxy)phenyl)-1H-indazol-5-yl)-2-phenylacetamide]
≤ 5	≤ 5	≤ 5	≤ 5	≤ 5	≤ 5	≤ 5	5 to 20	–	COCCN1CCC(Oc2ccc(-c3n[nH]c4ccc(C(=O)N[C@H](C)c5ccccc5F)cc34)cc2)CC1 [Example A129, (R)—N-(1-(2-fluorophenyl)ethyl)-3-(4-((1-(2-methoxyethyl)piperidin-4-yl)oxy)phenyl)-1H-indazole-5-carboxamide]
≤ 5	≤ 5	≤ 5	≤ 5	≤ 5	≤ 5	≤ 5	≤ 5	–	CN1CCC(Oc2ccc(-c3n[nH]c4ccc(NC(=O)C(c5ccccc5F)C5CCCC5)cc34)cc2)CC1 (centres unmarked) [Example A162, 2-cyclopentyl-2-(2-fluorophenyl)-N-(3-(4-((1-methylpiperidin-4-yl)oxy)phenyl)-1H-indazol-5-yl)acetamide]
≤ 5	≤ 5	≤ 5	≤ 5	≤ 5	≤ 5	≤ 5	≤ 5	–	O=C(NC(c1ccccc1)C1CC1)c1ccc2[nH]nc(-c3ccc(OCCN4CCOCC4)cc3)c2c1 (centres unmarked) [Example A140, N-(cyclopropyl(phenyl)methyl)-3-(4-(2-morpholinoethoxy)phenyl)-1H-indazole-5-carboxamide]
≤ 5	≤ 5	≤ 5	≤ 5	≤ 5	≤ 5	≤ 5	5 to 20	–	CN1CCC(Oc2ccc(-c3n[nH]c4ccc(C(=O)NCc5ccccc5CO)cc34)cc2)CC1 [Example A142, N-(2-(hydroxymethyl)benzyl)-3-(4-((1-methylpiperidin-4-yl)oxy)phenyl)-1H-indazole-5-carboxamide]
≤ 5	≤ 5	≤ 5	≤ 5	≤ 5	–	≤ 5	≤ 5	≤ 5	COc1cc(-c2n[nH]c3ccc(C(=O)NC(c4ccccc4)C4CC4)cc23)ccc1OC1CCN(C2COC2)CC1 (centres unmarked) [Example A194, N-(cyclopropyl(phenyl)methyl)-3-(3-methoxy-4-((1-(oxetan-3-yl)piperidin-4-yl)oxy)phenyl)-1H-indazole-5-carboxamide]
≤ 5	≤ 5	≤ 5	≤ 5	≤ 5	≤ 5	≤ 5	≤ 5	–	CN1CCC(Oc2ccc(-c3n[nH]c4ccc(NC(=O)C5OCCc6ccccc65)cc34)cc2)CC1 (centres unmarked) [Example A146, N-(3-(4-(1-Methylpiperidin-4-yloxy)phenyl)-1H-indazol-5-yl)isochroman-1-carboxamide]
≤ 5	≤ 5	≤ 5	≤ 5	≤ 5	–	≤ 5	≤ 5	≤ 5	CN1CCC(Oc2ccc(-c3n[nH]c4ccc(C(=O)N[C@H](CCO)c5ccccc5)cc34)cc2Cl)CC1 [Example A202, (R)-3-(3-chloro-4-((1-methylpiperidin-4-yl)oxy)phenyl)-N-(3-hydroxy-1-phenylpropyl)-1H-indazole-5-carboxamide]
≤ 5	≤ 5	≤ 5	≤ 5	≤ 5	≤ 5	≤ 5	≤ 5	–	CC(C)(C)OC(=O)N1CCC(Oc2ccc(-c3n[nH]c4ccc(NC(=O)C(c5ccsc5)N5CCCC5)cc34)cc2)CC1 (centres unmarked) [Example A115, tert-butyl 4-(4-(5-(2-(pyrrolidin-1-yl)-2-(thiophen-3-yl)acetamido)-1H-indazol-3-yl)phenoxy)piperidine-1-carboxylate]
≤ 5	≤ 5	≤ 5	≤ 5	≤ 5	–	≤ 5	≤ 5	≤ 5	CN1CCC(Oc2ccc(-c3n[nH]c4ccc(C(=O)NC(c5ccccn5)C5CC5)cc34)cc2Cl)CC1 (centres unmarked) [Example A198, 3-(3-chloro-4-((1-methylpiperidin-4-yl)oxy)phenyl)-N-(cyclopropyl(pyridin-2-yl)methyl)-1H-indazole-5-carboxamide]
≤ 5	≤ 5	≤ 5	≤ 5	≤ 5	–	≤ 5	≤ 5	≤ 5	CN1CCC(Oc2ccc(-c3n[nH]c4ccc(C(=O)NC(c5ccccc5Cl)C5CCCC5)cc34)cc2)CC1 (centres unmarked) [Example A199, N-((2-chlorophenyl)(cyclopentyl)methyl)-3-(4-((1-methylpiperidin-4-yl)oxy)phenyl)-1H-indazole-5-carboxamide]
